Patent US20240198287A1, “CARBON DIOXIDE RECOVERING METHOD AND CARBON DIOXIDE RECOVERING DEVICE” (MITSUBISHI GAS CHEMICAL COMPANY, INC., priority 2021, published 2024)

Experiment: Acid dissociation constant (pKa) by acid-base titration
Assay type: physicochemical
Conditions: purified water; titration with 0.1 N perchloric acid-acetic acid solution, 25±2° C.
Procedure: In the present description, the acid dissociation constant of the amine compound (a) is a value obtained by the following measurement method based on an acid-base titration method. • (1) Dissolving 0.2 g of the amine compound (a) in 30 mL of purified water. • (2) Calculating the acid dissociation constant (pKa) by titrating the solution obtained in the above (1) with 0.1 N perchloric acid-acetic acid solution using an automatic potentiometric titrator (for example, AT-610 produced by Kyoto Electronics Manufacturing Co., Ltd.).
Still, let a temperature at a time of measurement be 25±2° C.
The acid dissociation constant of the amine compound (a) was determined by the following method. • (1) Dissolving 0.2 g of the amine compound (a) in 30 mL of the purified water. • (2) Calculating the acid dissociation constant (pKa) by titrating the solution obtained in the above (1) with the 0.1 N perchloric acid-acetic acid solution using the automatic potentiometric titrator (AT-610 produced by Kyoto Electronics Manufacturing Co., Ltd.).
Still, let the temperature at the time of measurement be 25±2° C.

## NCC1CCCC(CN)C1 (stereo not shown) [1,3-BAC, 1,3-bis(aminomethyl)cyclohexane]
  pKa: 10.8
